PubChem BioAssay AID248 (DTP/NCI, 2004)
Values joined by “and” are separate entries in the source; they are usually repeats but may differ in a detail not shown here. Identical values can stand only once. Inconclusive results and toxic doses are left out. Rule as the data show it: active = T/C of 150% or more; inactive = T/C below 125%.

Test system: L1210 leukemia ip in BDF1 mice, survival T/C
Experiment: NCI In Vivo Anticancer Drug Screen. Data for tumor model L1210 Leukemia (intraperitoneal) in B6D2F1 (BDF1) mice
Settings: endpoint: mean survival time, higher = longer survival
Method in brief: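 Value reflects the ratio of survival in compound-treated mice to survival in vehicle-treated controls, with both groups carrying the same transplanted tumor.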

[1] = dose: 100.0 mg/kg/injection, schedule: Q01DX001 (ip), vehicle: saline
[2] = dose: 200.0 mg/kg/injection, schedule: Q01DX001 (ip), vehicle: saline
[3] = dose: 400.0 mg/kg/injection, schedule: Q01DX001 (ip), vehicle: saline

Measured: T/C

CCc1c(CC(=O)O)c2cc(C)ccc2n1Cc1ccc(Cl)cc1
inactive: dose: 12.5 mg/kg/injection, schedule: Q01DX Z (ip), vehicle: saline 95 % of control and 96 % of control | dose: 24.0 mg/kg/injection, schedule: Q01DX Z (ip), vehicle: carboxymethylcellulose (CMC) 91 % of control | dose: 25.0 mg/kg/injection, schedule: Q01DX Z (ip), vehicle: saline 103 % of control and 100 % of control | dose: 36.0 mg/kg/injection, schedule: Q01DX Z (ip), vehicle: carboxymethylcellulose (CMC) 92 % of control | dose: 50.0 mg/kg/injection, schedule: Q01DX Z (ip), vehicle: saline 113 % of control and 102 % of control | dose: 54.0 mg/kg/injection, schedule: Q01DX Z (ip), vehicle: carboxymethylcellulose (CMC) 95 % of control | dose: 100.0 mg/kg/injection, schedule: Q01DX Z (ip), vehicle: saline 95 % of control and 93 % of control | dose: 162.0 mg/kg/injection, schedule: Q01DX Z (ip), vehicle: carboxymethylcellulose (CMC) 94 % of control | dose: 324.0 mg/kg/injection, schedule: Q01DX Z (ip), vehicle: carboxymethylcellulose (CMC) 88 % of control

CC1(C)OC2OC(CO)C(O)C2O1 (stereo unspecified)
inactive: [1] 101 % of control | [2] 97 % of control | [3] 98 % of control

COC(=O)NS(=O)(=O)c1ccco1
inactive: dose: 100.0 mg/kg/injection, schedule: Q01DX001 (ip), vehicle: Klucel (hydroxypropylcellulose) (HPC) 92 % of control | dose: 100.0 mg/kg/injection, schedule: Q04DX003 (ip), vehicle: Klucel (hydroxypropylcellulose) (HPC) 100 % of control | dose: 200.0 mg/kg/injection, schedule: Q01DX001 (ip), vehicle: Klucel (hydroxypropylcellulose) (HPC) 98 % of control | dose: 200.0 mg/kg/injection, schedule: Q04DX003 (ip), vehicle: Klucel (hydroxypropylcellulose) (HPC) 106 % of control | dose: 400.0 mg/kg/injection, schedule: Q01DX001 (ip), vehicle: Klucel (hydroxypropylcellulose) (HPC) 101 % of control | dose: 400.0 mg/kg/injection, schedule: Q04DX003 (ip), vehicle: Klucel (hydroxypropylcellulose) (HPC) 89 % of control

CC(C)CC(B1OCCO1)(C1CCCCC1)C1CCCCC1
inactive: dose: 100.0 mg/kg/injection, schedule: Q01DX009 (ip), vehicle: saline with Tween-80 107 % of control | dose: 100.0 mg/kg/injection, schedule: Q04DX003 (ip), vehicle: other 105 % of control | dose: 200.0 mg/kg/injection, schedule: Q01DX009 (ip), vehicle: saline with Tween-80 93 % of control | dose: 200.0 mg/kg/injection, schedule: Q04DX003 (ip), vehicle: other 104 % of control | dose: 400.0 mg/kg/injection, schedule: Q04DX003 (ip), vehicle: other 110 % of control

COC(=O)c1nc(-c2ccc3c(n2)C(=O)C(N)=C(OC)C3=O)c(N)c(-c2ccc(OC)c(OC)c2O)c1C
inactive: dose: 0.5 mg/kg/injection, schedule: Q01DX015 (ip), vehicle: water 116 % of control | dose: 1.0 mg/kg/injection, schedule: Q01DX001 (ip), vehicle: water 110 % of control | dose: 1.0 mg/kg/injection, schedule: Q01DX015 (ip), vehicle: water 119 % of control | dose: 2.0 mg/kg/injection, schedule: Q01DX001 (ip), vehicle: water 109 % of control | dose: 2.0 mg/kg/injection, schedule: Q01DX015 (ip), vehicle: water 98 % of control | dose: 3.0 mg/kg/injection, schedule: Q01DX001 (ip), vehicle: carboxymethylcellulose (CMC) 104 % of control | dose: 6.0 mg/kg/injection, schedule: Q01DX001 (ip), vehicle: carboxymethylcellulose (CMC) 110 % of control | dose: 12.0 mg/kg/injection, schedule: Q01DX001 (ip), vehicle: carboxymethylcellulose (CMC) 105 % of control | dose: 24.0 mg/kg/injection, schedule: Q01DX001 (ip), vehicle: carboxymethylcellulose (CMC) 104 % of control | dose: 48.0 mg/kg/injection, schedule: Q01DX001 (ip), vehicle: carboxymethylcellulose (CMC) 105 % of control

O=C1NC(=O)C(c2ccccc2)(c2ccsc2)N1 (stereo unspecified)
inactive: [1] 95 % of control | [2] 90 % of control | [3] 95 % of control
